Measured values published in patent publication US20250346603A1, “TRICYCLIC COMPOUNDS AS PI3KALPHA INHIBITORS” (Pikavation Therapeutics, Inc., priority 2022, published 2025).

Tests used:
SKBR3 (PIK3CA WT) cells = test: pS473 AKT assay in SKBR3 cells; type: cell-based; conditions: Homo sapiens, SK-BR-3, pSer473 AKT, 2 h treatment, read-out: SKBR3_IC50
Procedure: (§1) SKBR3 (PIK3CA WT), MCF7 (PIK3CA E545K), and T47D (PIK3CA H1047R) cells were cultured using 10-cm petri dishes with recommended medium. One day before the assay, cells were seeded in 96-well plates. After overnight incubation, cells were treated with different concentrations of PI3Kα inhibitors for 2 h. Cells were then fixed using 4% paraformaldehyde at room temperature for 20 min. Cells were aspirated with 4% paraformaldehyde, and washed using 1× regular phosphate buffered saline 3 times, 5 min each. Any residual phosphate buffered saline was aspirated and cells were blocked using 10% goat serum containing 1% bovine serum albumin and 0.3% Triton X-100 at room temperature for 1 h. Without any additional washing, primary antibodies (rabbit anti-pSer473 AKT) were diluted using blocking buffer and added at a final volume of 50 microliter per well. Assay plates with primary antibodies were maintained overnight at 4° C. Cells were washed using 1× regular phosphate buffered saline 3 times, 5 min each. After the final wash, cells were incubated with horseradish peroxidase-conjugated secondary antibodies (goat Anti-rabbit IgG) and diluted using the same blocking buffer at room temperature for 1 h. Cells were then washed thoroughly using 1× regular phosphate buffered saline 3 times, 5 min each, and any residual phosphate buffered saline was aspirated. Super-Signal ELISA Pico Chemiluminescent Substrate was then added at a final volume of 100 microliter per well. Plates were read on a i3× Multi-Mode Microplate Reader and IC50 values calculated using GraphPad Prism software.
(§2) Results of the assay described above are presented in Table A. “++++” indicates an IC50 less than 1000 nM; “+++” indicates an IC50 greater than or equal to 1000 nM but less than 5000 nM; “++” indicates an IC50 greater than or equal to 5000 nM but less than 10000 nM; and “+” indicates an IC50 greater than or equal to 10000 nM.

[1] = test system: T47D (PIK3CA H1047R) cells; test: pS473 AKT assay in T47D cells; type: cell-based; conditions: Homo sapiens, pSer473 AKT, 2 h treatment, read-out: T47D_IC50
Procedure: as §1, §2

| Compound | IC50 (SKBR3 (PIK3CA WT) cells) | IC50 [1] |
| --- | --- | --- |
| Cc1cc(C(C)Nc2ccccc2C(=O)O)c2nc(N3CCC(C)(C)CC3)n3ccnc3c2c1 (stereo not drawn) [Example 1, 2-((1-(5-(4,4-Dimethylpiperidin-1-yl)-9-methylimidazo[1,2-c]quinazolin-7-yl)ethyl)amino)benzoic acid] | ≥ 10 µM | < 1 µM |
| Cc1cc(C(C)Nc2ccccc2C(=O)O)c2nc(N3Cc4ccccc4C3)n3ccnc3c2c1 (stereo not drawn) [Example 2, 2-((1-(5-(Isoindolin-2-yl)-9-methylimidazo[1,2-c]quinazolin-7-yl)ethyl)amino)benzoic acid] | ≥ 10 µM | < 1 µM |
| Cc1cc(C(C)Nc2ccccc2C(=O)O)c2nc(N3CCC(C)(C)CC3)n3ncnc3c2c1 (stereo not drawn) [Example 3, 2-((1-(5-(4,4-Dimethylpiperidin-1-yl)-9-methyl-[1,2,4]triazolo[1,5-c]quinazolin-7-yl)ethyl)amino)benzoic acid] | ≥ 10 µM | < 1 µM |
| Cc1cc(C(C)Nc2ccccc2C(=O)O)c2nc(N3CCC(C)(C)CC3)n3cnnc3c2c1 (stereo not drawn) [Example 4, 2-((1-(5-(4,4-Dimethylpiperidin-1-yl)-9-methyl-[1,2,4]triazolo[4,3-c]quinazolin-7-yl)ethyl)amino)benzoic acid] | ≥ 10 µM | < 1 µM |
| Cc1cc(C(C)Nc2ccccc2C(=O)O)c2nc(N3Cc4ccccc4C3)n3cnnc3c2c1 (stereo not drawn) [Example 5, 2-((1-(5-(Isoindolin-2-yl)-9-methyl-[1,2,4]triazolo[4,3-c]quinazolin-7-yl)ethyl)amino)benzoic acid] | ≥ 10 µM | < 1 µM |
| Cc1cc(C(C)Nc2ccccc2C(=O)O)c2nc(N3CCC(C)(C)C3)n3cnnc3c2c1 (stereo not drawn) [Example 6, 2-((1-(5-(3,3-Dimethylpyrrolidin-1-yl)-9-methyl-[1,2,4]triazolo[4,3-c]quinazolin-7-yl)ethyl)amino)benzoic acid] | ≥ 10 µM | < 1 µM |
| Cc1cc(C(C)Nc2ccccc2C(=O)O)c2nc(N3CC(C)(C)C3)n3cnnc3c2c1 (stereo not drawn) [Example 7, 2-((1-(5-(3,3-Dimethylazetidin-1-yl)-9-methyl-[1,2,4]triazolo[4,3-c]quinazolin-7-yl)ethyl)amino)benzoic acid] | ≥ 10 µM | < 1 µM |
| Cc1cc(C(C)Nc2ccccc2C(=O)O)c2nc(N3CCC(C)(C)CC3)n3nnnc3c2c1 (stereo not drawn) [Example 8, 2-((1-(5-(4,4-dimethylpiperidin-1-yl)-9-methyltetrazolo[1,5-c]quinazolin-7-yl)ethyl)amino)benzoic acid] | ≥ 10 µM | 1 to 5 µM |
| Cc1cc(C(C)Nc2ccccc2C(=O)O)c2nc(-c3cccc(C#N)c3)n3cnnc3c2c1 (stereo not drawn) [Example 9, 2-((1-(5-(3-Cyanophenyl)-9-methyl-[1,2,4]triazolo[4,3-c]quinazolin-7-yl)ethyl)amino)benzoic acid] | – | < 1 µM |
| Cc1cc(C(C)Nc2ccc(Cl)nc2C(=O)O)c2nc(-c3cccc(C#N)c3)n3cnnc3c2c1 (stereo not drawn) [Example 10, 6-Chloro-3-((1-(5-(3-cyanophenyl)-9-methyl-[1,2,4]triazolo[4,3-c]quinazolin-7-yl)ethyl)amino)picolinic acid] | – | < 1 µM |
| Cc1cc(C(C)Nc2ccccc2C(=O)O)c2nc(-c3cc(F)cc(F)c3)n3cnnc3c2c1 (stereo not drawn) [Example 11, 2-((1-(5-(3,5-Difluorophenyl)-9-methyl-[1,2,4]triazolo[4,3-c]quinazolin-7-yl)ethyl)amino)benzoic acid] | – | < 1 µM |
| CCc1ncn2c3c(C(C)Nc4ccc(C)nc4C(=O)O)cc(C)cc3c3nncn3c12 (stereo not drawn) [Example 12, 3-((1-(5-Ethyl-11-methylimidazo[1,5-a][1,2,4]triazolo[4,3-c]quinazolin-9-yl)ethyl)amino)-6-methylpicolinic acid] | – | 1 to 5 µM |
| Cc1cc(C(C)Nc2ccc(Cl)nc2-c2ccncc2)c2nc(N3CCC(C)(C)CC3)n3cnnc3c2c1 (stereo not drawn) [Example 13, 6-Chloro-N-(1-(5-(4,4-dimethylpiperidin-1-yl)-9-methyl-[1,2,4]triazolo[4,3-c]quinazolin-7-yl)ethyl)-[2,4′-bipyridin]-3-amine] | – | < 1 µM |
| CNC(=O)c1ccc(-c2nc(Cl)ccc2NC(C)c2cc(C)cc3c2nc(N2CCC(C)(C)CC2)n2cnnc32)cn1 (stereo not drawn) [Example 14, 6-Chloro-3-((1-(5-(4,4-dimethylpiperidin-1-yl)-9-methyl-[1,2,4]triazolo[4,3-c]quinazolin-7-yl)ethyl)amino)-N-methyl-[2,3′-bipyridine]-6′-carboxamide] | – | < 1 µM |
| Cc1cc(C(C)Nc2ccc(Cl)nc2-c2cnn(C)c2)c2nc(N3CCN(C)CC3)n3cnnc3c2c1 (stereo not drawn) [Example 15, 6-Chloro-2-(1-methyl-1H-pyrazol-4-yl)-N-(1-(9-methyl-5-(4-methylpiperazin-1-yl)-[1,2,4]triazolo[4,3-c]quinazolin-7-yl)ethyl)pyridin-3-amine] | – | < 1 µM |
| Cc1cc(C(C)Nc2ccc(Cl)nc2-c2ccnn2C)c2nc(N3CCN(C)CC3)n3cnnc3c2c1 (stereo not drawn) [Example 16, 6-Chloro-2-(1-methyl-1H-pyrazol-5-yl)-N-(1-(9-methyl-5-(4-methylpiperazin-1-yl)-[1,2,4]triazolo[4,3-c]quinazolin-7-yl)ethyl)pyridin-3-amine] | – | < 1 µM |
